What all share (assay type): in vivo
For one experiment, the system named is Aphis gossypii. Description: Aphis gossypii test (cotton leaves, dip). Particulars: Table A. How it is done: To produce a suitable preparation of active compound, 1 part by weight of active compound is mixed with the stated amount of solvent and emulsifier, and the concentrate is diluted with emulsifier-containing water to the desired concentration.
Cotton leaves (Gossypium hirsutum) which are heavily infested by the cotton aphid (Aphis gossypii) are treated by being dipped into the preparation of active compound of the desired concentration.
(§1) After the desired period of time, the kill in % is determined. 100% means that all aphids have been killed; 0% means that none of the aphids have been killed. The kill rates determined are calculated using Colby's formula (see page 44).

Experiment [1] has as its system Phaedon cochleariae larvae. Nature of the experiment: Phaedon cochleariae larvae test (cabbage leaves, dip). As for the experimental part: Phaedon cochleariae Larvae Test
(§2) To produce a suitable preparation of active compound, 1 part by weight of active compound is mixed with the stated amounts of solvent and emulsifier, and the concentrate is diluted with emulsifier-containing water to the desired concentration.
Cabbage leaves (Brassica oleracea) are treated by being dipped into the preparation of active compound of the desired concentration and are populated with larvae of the mustard beetle (Phaedon cochleariae) while the leaves are still moist.
After the desired period of time, the kill in % is determined. 100% means that all beetle larvae have been killed; 0% means that none of the beetle larvae have been killed. The kill rates determined are calculated using Colby's formula (see page 44).

Experiment [2] relates to Tetranychus urticae (OP-resistant). Nature of the experiment: Tetranychus urticae test (OP-resistant; dip application). As for the experimental part:
Tetranychus urticae Test (OP-Resistant; Dip Application)
as §2
Bush beans (Phaseolus vulgaris) which are heavily infested by the greenhouse red spider mite (Tetranychus urticae) are dipped into a preparation of active compound of the desired concentration.
After the desired period of time, the kill in % is determined. 100% means that all spider mites have been killed; 0% means that none of the spider mites have been killed. The kill rates determined are calculated using Colby's formula (see page 44).

The subject of another experiment is Heliothis armigera. Description: Heliothis armigera test (cabbage leaves, dip). Particulars: for Kill rate in % after 3 d, found: Table B 2; for Kill rate in % after 6 d, found: Table B 1. How it is done:
as §2
Cabbage leaves (Brassica oleracea) are treated by being dipped into the preparation of active compound of the desired concentration and are populated with caterpillars of the cotton boll worm (Heliothis armigeia) while the leaves are still moist.
After the desired period of time, the kill in % is determined. 100% means that all caterpillars have been killed; 0% means that none of the caterpillars have been killed. The kill rates determined are calculated using Colby's formula (see page 44).

The test system of the next experiment is Myzus persicae. Description: Myzus persicae test (cabbage leaves, dip). The note with it: Table C. How it is done:
as §2
Cabbage leaves (Brassica oleracea) which are heavily infested by the green peach aphid (Myzus persicae) are treated by being dipped into the preparation of active compound of the desired concentration.
as §1

Consider `CC(C)c1cc(Oc2ccccc2)cc(C(C)C)c1NC(=S)NC(C)(C)C` [(2-5) diafenthiuron, diafenthiuron, reference compound], for which the “Kill rate in % after 1 d, found” value in the experiment on Aphis gossypii (20 ppm) stood at 15%.
With `CCC(C)(C)C(=O)OC1=C(c2ccc(Cl)cc2Cl)C(=O)OC12CCCCC2` [Example I-2], in experiment [1] (Table D 1, 100 ppm), the “Kill rate in % after 4 d, found” value was 0%. Also, the “Kill rate in % after 7 d, found” value in experiment [2] (Table E 1, 0.8 ppm) was 0%.
For “spinosad [(2-17) spinosad, reference compound]”, in the experiment with Heliothis armigera (0.032 ppm), the “Kill rate in % after 3 d, found” value was 0%.
With `Cc1cc(Cl)cc(C(=O)NC(C)C)c1NC(=O)c1cc(C(F)(F)F)nn1-c1ncccc1Cl` [II-1-9], the “Kill rate in % after 1 d, found” value in the experiment with Aphis gossypii (4 ppm) is recorded as 10%. Moreover, the results for the “Kill rate in % after 6 d, found” value in the experiment on Heliothis armigera (0.0064 ppm) and in the experiment on Myzus persicae (4 ppm) were 30% and 25%, respectively. Moreover, the “Kill rate in % after 3 d, found” value in the experiment with Heliothis armigera (0.0064 ppm) worked out at 10%. The “Kill rate in % after 4 d, found” value in experiment [1] (Table D 1, 0.16 ppm) worked out at 0%; in experiment [1] (Table D 2, 0.16 ppm) it was 5%. Also, the “Kill rate in % after 7 d, found” value in experiment [2] (Table E 1, 100 ppm) was determined as 0%; in experiment [2] (Table E 2, 100 ppm), 0%.
As for `Cc1cc(C)c(C2=C(OC(=O)CC(C)(C)C)C3(CCCC3)OC2=O)c(C)c1` [Example I-1], the “Kill rate in % after 4 d, found” value in experiment [1] (Table D 2, 100 ppm) is reported as 45%. In experiment [2] (Table E 2, 0.8 ppm), the “Kill rate in % after 7 d, found” value is reported as 65%.
Regarding `O=S1OCC2C(CO1)C1(Cl)C(Cl)=C(Cl)C2(Cl)C1(Cl)Cl` (stereo not shown) [(2-20) endosulfan, endosulfan, reference compound], the “Kill rate in % after 6 d, found” value with Myzus persicae (20 ppm) worked out at 15%.
As for “abamectin [(2-2) abamectin, reference compound]”, the “Kill rate in % after 6 d, found” value with Heliothis armigera (0.16 ppm) is 50%.

These data come from patent US8299036B2, “Active agent combinations with insecticidal and acaricidal properties” (priority 2003, dated 2012).
